Measured values reported in PMC4492764, “Evaluation of biomarkers for in vitro prediction of drug-induced nephrotoxicity: comparison of HK-2, immortalized human proximal tubule epithelial, and primary cultures of human proximal tubular cells” (Pharmacology Research & Perspectives, 2015).
“Also recorded” adds a separate entry of the source.

Columns and labels:
Assay type in all cases: cell-based, human
NGAL mRNA [1] = assay: NGAL mRNA qRT-PCR in HK-2 cells; set-up: key to Upregulation of NGAL HK-2 R: +: statistically significant increase; −: no significant increase; conditions: mRNA levels; 72 h time point
Procedure: (§1) HK-2 cells (ATCC CRL-2190; Manassas, VA) were maintained in DMEM/F12 (Life Technologies; Sydney, NSW, Australia) supplemented with 5 μg/mL insulin, 5 μg/mL transferrin, 5 ng/mL sodium selenite (ITS; Roche; […] (passage 2) and culture kits were purchased from Lonza. […] were maintained in Renal Epithelial Cell BulletKitTM (CC-3190, Lonza) at 37°C and 5% CO2 atmosphere. Cells were passaged to 96-well plates with a density of 4000 cells/well. After 24 h culture, compounds with different concentration series were added into each well and incubated for 4, 24, 48, and 72 h. HK-2 and […] were treated with compounds for 4, 24, 48, and 72 h, then the cells were lysed and the RNA reverse transcribed with the TaqMan® Gene Expression Cells-to-CTTM Kit (Life Technologies) according to the manufacturer's instructions. […] Hs00273334_m1), Lcn2 (NGAL; Hs01008571_m1), and Csf1 (M-CSF; Hs00174164_m1). All probes span an exon-exon junction. The real-time quantitative reverse transcription PCR (qRT-PCR) was performed in a 10 μl final reaction mixture using a ViiA 7TM system (Applied Biosystems®, Sydney, NSW, Australia) based on the following thermo cycling conditions: 10 min at 95°C for one cycle, 15 sec at 95°C, 60 sec at 60°C for 40 cycles. The ViiA 7TM software was used for data analysis with Hprt1 expression used for normalization. All assays were performed at least three times, with at least two technical replicates in each assay.

KIM-1 [2] = assay: KIM-1 protein ELISA in HK-2 cells; set-up: key: +: statistically significant increase; −: no significant increase; conditions: protein levels in culture medium; 72 h time point
Procedure: (§2) HK-2 cells (ATCC CRL-2190; Manassas, VA) were maintained in DMEM/F12 (Life Technologies; Sydney, NSW, Australia) supplemented with 5 μg/mL insulin, 5 μg/mL transferrin, 5 ng/mL sodium selenite (ITS; Roche; […] (passage 2) and culture kits were purchased from Lonza. […] were maintained in Renal Epithelial Cell BulletKitTM (CC-3190, Lonza) at 37°C and 5% CO2 atmosphere. Cells were passaged to 96-well plates with a density of 4000 cells/well. After 24 h culture, compounds with different concentration series were added into each well and incubated for 4, 24, 48, and 72 h. KIM-1 (DY1750), NGAL (DY1757), and M-CSF (DY216) Duo-Set® ELISA kits were purchased from R&D systems (Minneapolis, MN). Sandwich-ELISA experiments were conducted following the manufacturer's instructions with slight modifications. A 96-well microplate (MaxiSorp®, Nunc, Thermo Scientific, NSW, Australia) was coated with 100 μL of capture antibodies (diluted 1:200 in PBS) and incubated overnight. The plate was then washed twice with washing buffer (0.05% Tween 20 in PBS, pH 7.4) and blocked by adding 300 μL of blocking buffer (1% bovine serum albumin (BSA) in PBS) for 1 h at room temperature. After washing two times with PBS, 100 μL of samples (cell culture media or cell lysates) or standards were then added to each well and incubated for 2 h at room temperature. The biotinylated detection antibodies were then diluted in blocking buffer, added to each well and incubated for 2 h. Horseradish peroxidase (HRP)-labeled streptavidin (100 μL) was then added to bind to detection antibodies. To each well, 100 μL of substrate solution (1:1 mixture of H2O2 and tetramethylbenzidine) was added and incubated for 20 min before reaction termination with 50 μL of stop solution (2N H2SO4). The optical density of each well was measured at 450 nm using a POLARstar Omega plate reader (BMG Labtech). All assays were performed at least three times, with at least two technical replicates in each assay.

NGAL [3] = assay: NGAL protein ELISA in hRPTECs; set-up: key to Upregulation of NGAL hRPTECs P: +: statistically significant increase; −: no significant increase; conditions: for NGAL protein in hRPTEC culture medium: 24 h
Procedure: as §2

NGAL mRNA [4] = assay: NGAL mRNA qRT-PCR in hRPTECs; set-up: key to Upregulation of NGAL hRPTECs R: +: statistically significant increase; −: no significant increase
Procedure: as §1

[5] = MTT cytotoxicity assay in HK-2 cells; conditions: human, HK-2 cells; 72 h incubation; Mean ± Standard deviation, n = 3
Procedure: (§3) For the MTT assay, the medium was then removed, the dried crystals were resuspended in 60 μL of Dimethyl sulfoxide (DMSO), and the absorbance was read at 570 nm. For the resazurin assay, the fluorescence intensity was read using a PolarStar Omega plate reader (BMG Labtech; Mornington VIC, Australia) at excitation/emission 560/590 nm. All assays were performed at least three times. […] La Jolla, CA). Both MTT and resazurin assays were performed three times, with two technical replicates in each assay.

KIM-1 mRNA [6] = assay: KIM-1 mRNA qRT-PCR in hRPTECs; set-up: key to Upregulation of KIM-1 hRPTECs R: +: statistically significant increase; −: no significant increase
Procedure: as §1

[7] = Resazurin cytotoxicity assay in HK-2 cells; conditions: human, HK-2 cells; 72 h incubation; Mean ± Standard deviation, n = 3
Procedure: as §3

KIM-1 [8] = assay: KIM-1 protein ELISA in hRPTECs; set-up: key to Upregulation of KIM-1 hRPTECs P: +: statistically significant increase; −: no significant increase
Procedure: as §2

NGAL [9] = assay: NGAL protein ELISA in HK-2 cells; set-up: key: +: statistically significant increase; −: no significant increase; conditions: protein levels in culture medium; 72 h time point
Procedure: as §2

[10] = Resazurin cytotoxicity assay in hRPTECs; conditions: human, hRPTECs (passage 2); 72 h incubation; Mean ± Standard deviation, n = 3
Procedure: as §3

KIM-1 mRNA [11] = assay: KIM-1 mRNA qRT-PCR in HK-2 cells; set-up: key to Upregulation of KIM-1 HK-2 R: +: statistically significant increase; −: no significant increase
Procedure: as §1

[12] = MTT cytotoxicity assay in hRPTECs; conditions: human, hRPTECs (passage 2); 72 h incubation; Mean ± Standard deviation, n = 3
Procedure: as §3

M-CSF mRNA = M-CSF mRNA qRT-PCR in hRPTECs; conditions: 72 h (Fig.4C)
Procedure: Hs00273334_m1), Lcn2 (NGAL; Hs01008571_m1), and Csf1 (M-CSF; Hs00174164_m1). All probes span an exon-exon junction. The real-time quantitative reverse transcription PCR (qRT-PCR) was performed in a 10 μl final reaction mixture using a ViiA 7TM system (Applied Biosystems®, Sydney, NSW, Australia) based on the following thermo cycling conditions: 10 min at 95°C for one cycle, 15 sec at 95°C, 60 sec at 60°C for 40 cycles. The ViiA 7TM software was used for data analysis with Hprt1 expression used for normalization. All assays were performed at least three times, with at least two technical replicates in each assay.

[13] = protein levels in culture medium, 72 h time point

Structure (SMILES)	Upregulation of NGAL HK-2 R (NGAL mRNA [1])	Upregulation of KIM-1 HK-2 P (KIM-1 [2])	NGAL protein in hRPTEC culture medium (NGAL [3])	Upregulation of NGAL hRPTECs P (NGAL [3]; [13])	Upregulation of NGAL hRPTECs R (NGAL mRNA [4]; mRNA levels, 72 h time point)	CC50 at 72 h [5] [µM]	Upregulation of KIM-1 hRPTECs R (KIM-1 mRNA [6]; mRNA levels, 72 h time point)	CC50 at 72 h [7] [µM]	KIM-1 protein upregulation in hRPTECs (KIM-1 [8]; 4 h, culture medium (Fig. S5A))	Upregulation of KIM-1 hRPTECs P (KIM-1 [8]; [13])	Upregulation of NGAL HK-2 P (NGAL [9])	CC50 at 72 h [10] [µM]	Upregulation of KIM-1 HK-2 R (KIM-1 mRNA [11]; mRNA levels, 72 h time point)	CC50 at 72 h [12] [µM]	NGAL mRNA levels in hRPTECs (NGAL mRNA [4]; 72 h exposure, 1 μmol/L (high dose), P < 0.001)	KIM-1 mRNA in hRPTECs (KIM-1 mRNA [6]; 72 h, high dose)	KIM-1 mRNA transcription level in HK-2 cells (KIM-1 mRNA [11]; 72 h, P < 0.005)	M-CSF mRNA levels in hRPTECs (M-CSF mRNA)
C[C@@H]1[C@H](O)[C@@H](C)/C=C/C=C/C=C/C=C/C=C/C=C/C=C/[C@H](O[C@@H]2O[C@H](C)[C@@H](O)[C@H](N)[C@@H]2O)C[C@@H]2O[C@](O)(C[C@@H](O)C[C@@H](O)[C@H](O)CC[C@@H](O)C[C@@H](O)CC(=O)O[C@H]1C)C[C@H](O)[C@H]2C(=O)O [AmB, amphotericin B]	−	−	increases	+	−	> 50	−	20 ± 3	significant upregulation	+	−	6 ± 1	−	> 50				
COc1cccc2c1C(=O)c1c(O)c3c(c(O)c1C2=O)C[C@@](O)(C(=O)CO)C[C@@H]3O[C@H]1C[C@H](N)[C@H](O)[C@H](C)O1 [Doxorubicin, doxorubicin]			increases			> 50		2.1 ± 1				5.2 ± 1		> 50	kept rising; also recorded: significant induction	stimulation; also recorded: significant induction	increased	significant results; also recorded: significant induction
